Laboratory results published in ChEMBL document CHEMBL3603768, “Identification of 2-[2-(4-tert-butylphenyl)ethyl]-N-(4-fluorophenyl)-1,2,3,4-tetrahydroisoquinoline-6-sulfonamide (29) as an orally available MGAT2 inhibitor” (Bioorg Med Chem, 2015).
Converted amounts (≈) assume the structure as drawn.

Columns and labels:
[1] = molecular target: 2-acylglycerol O-acyltransferase 2 (Homo sapiens, UniProt Q3SYC2); experiment: Inhibition of human recombinant MGAT2 assessed as reduction in enzyme-mediated deacylation of oleoyl-CoA incubated for 20 mins by CPM dye based fluorescence assay
[2] = molecular target: 2-acylglycerol O-acyltransferase 2 (Mus musculus, UniProt Q80W94); experiment: Inhibition of mouse recombinant MGAT2 assessed as reduction in enzyme-mediated deacylation of oleoyl-CoA incubated for 20 mins by CPM dye based fluorescence assay
[3] = Solubility in water; type: physicochemical
[4] = Drug metabolism in human liver microsomes incubated for 15 mins; type: ADME; conditions: read-out: Drug metabolism
[5] = Drug metabolism in mouse liver microsomes incubated for 15 mins; type: ADME; conditions: read-out: Drug metabolism
[6] = Solubility in FeSSIF solution at pH 5.0; type: physicochemical
[7] = Cmax in mouse at 100 mg/kg, po; type: ADME, organism-based; parameters: dose 100 mg/kg, route oral; conditions: in vivo
[8] = AUC (0 to 4 hrs) in mouse at 100 mg/kg, po; type: ADME, organism-based; parameters: dose 100 mg/kg, time < 4 hr, route oral; conditions: in vivo
[9] = tested on: Mus musculus; experiment: Inhibition of fat absorption in mouse assessed as reduction in plasma triglyceride AUC (0 to 4 hrs) level at 100 mg/kg, po by oral lipid tolerance test; type: functional

Chain of 2-acylglycerol O-acyltransferase 2 (Homo sapiens, UniProt Q3SYC2) (Q3SYC2 whole entry): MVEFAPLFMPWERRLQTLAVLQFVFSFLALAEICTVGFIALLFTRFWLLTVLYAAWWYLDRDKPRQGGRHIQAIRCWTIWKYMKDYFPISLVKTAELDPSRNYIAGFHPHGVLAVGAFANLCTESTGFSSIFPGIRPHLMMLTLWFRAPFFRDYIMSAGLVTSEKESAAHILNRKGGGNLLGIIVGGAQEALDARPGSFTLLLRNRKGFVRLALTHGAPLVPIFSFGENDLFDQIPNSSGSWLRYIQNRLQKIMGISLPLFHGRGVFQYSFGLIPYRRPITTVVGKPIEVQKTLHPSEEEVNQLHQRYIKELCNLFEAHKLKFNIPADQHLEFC
Chain of 2-acylglycerol O-acyltransferase 2 (Mus musculus, UniProt Q80W94) (Q80W94 whole entry): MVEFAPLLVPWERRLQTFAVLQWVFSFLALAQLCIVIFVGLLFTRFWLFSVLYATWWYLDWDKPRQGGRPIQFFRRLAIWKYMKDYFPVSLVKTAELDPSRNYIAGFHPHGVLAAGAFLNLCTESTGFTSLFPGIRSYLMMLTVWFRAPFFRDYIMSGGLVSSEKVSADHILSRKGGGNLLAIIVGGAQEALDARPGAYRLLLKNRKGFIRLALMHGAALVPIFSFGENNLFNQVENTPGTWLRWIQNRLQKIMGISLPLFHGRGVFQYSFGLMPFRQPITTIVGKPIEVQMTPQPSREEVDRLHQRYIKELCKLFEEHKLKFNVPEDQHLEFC

IC50 [1] | solubility [3] | SMILES | also measured
594 nM | < 0.07 µg/mL | CC(C)(C)c1ccc(NC(=O)N2Cc3ccc(S(=O)(=O)Nc4ccc(F)cc4)cc3C2)cc1 | IC50 [2]: 1310 nM; metabolised at 0.25 h [4]: 12.3%; metabolised at 0.25 h [5]: 70.9%
685 nM |  | CC(C)(C)c1ccc(NC(=O)N2Cc3ccc(S(=O)(=O)Nc4ccc(F)cc4F)cc3C2)cc1 | 
1110 nM |  | CC(C)(C)c1ccc(NC(=O)N2Cc3ccc(S(=O)(=O)Nc4ccc(F)cc4Cl)cc3C2)cc1 | 
2490 nM |  | CCc1cc(F)ccc1NS(=O)(=O)c1ccc2c(c1)CN(C(=O)Nc1ccc(C(C)(C)C)cc1)C2 | 
 | 0.607 µg/mL (≈ 1.22 µM) | COc1cc(F)ccc1NS(=O)(=O)c1ccc2c(c1)CN(C(=O)Nc1ccc(C(C)(C)C)cc1)C2 | solubility [6]: 28.3 µg/mL (≈ 56.9 µM); metabolised at 0.25 h [4]: 43.1%; metabolised at 0.25 h [5]: 60.6%; Cmax [7]: 94.3 ng/mL; AUC(0-t) at 4 h [8]: 134 ng·h/mL
733 nM |  | CCOc1cc(F)ccc1NS(=O)(=O)c1ccc2c(c1)CN(C(=O)Nc1ccc(C(C)(C)C)cc1)C2 | 
2300 nM |  | CCCOc1cc(F)ccc1NS(=O)(=O)c1ccc2c(c1)CN(C(=O)Nc1ccc(C(C)(C)C)cc1)C2 | 
3160 nM |  | COc1ccc(NS(=O)(=O)c2ccc3c(c2)CN(C(=O)Nc2ccc(C(C)(C)C)cc2)C3)c(OC)c1 | 
 | < 0.06 µg/mL | COc1ccc(NS(=O)(=O)c2ccc3c(c2)CN(C(=O)Nc2ccc(C(C)(C)C)cc2)C3)c(F)c1 | solubility [6]: 0.783 µg/mL (≈ 1.57 µM); metabolised at 0.25 h [4]: 20.6%; metabolised at 0.25 h [5]: 51.1%
5200 nM |  | CCOc1ccc(NS(=O)(=O)c2ccc3c(c2)CN(C(=O)Nc2ccc(C(C)(C)C)cc2)C3)c(F)c1 | 
1980 nM |  | CCCOc1ccc(NS(=O)(=O)c2ccc3c(c2)CN(C(=O)Nc2ccc(C(C)(C)C)cc2)C3)c(F)c1 | 
547 nM |  | CCCCOc1ccc(NS(=O)(=O)c2ccc3c(c2)CN(C(=O)Nc2ccc(C(C)(C)C)cc2)C3)c(F)c1 | 
 | < 0.06 µg/mL | CCCCCOc1ccc(NS(=O)(=O)c2ccc3c(c2)CN(C(=O)Nc2ccc(C(C)(C)C)cc2)C3)c(F)c1 | solubility [6]: 10.2 µg/mL (≈ 18.4 µM); metabolised at 0.25 h [4]: 0.1%; metabolised at 0.25 h [5]: 12.6%
8070 nM | < 0.11 µg/mL | CC(C)(C)c1ccc(CC(=O)N2Cc3ccc(S(=O)(=O)Nc4ccc(F)cc4)cc3C2)cc1 | 
2120 nM | 270 µg/mL (≈ 597 µM) | CC(C)(C)c1ccc(CCN2Cc3ccc(S(=O)(=O)Nc4ccc(F)cc4)cc3C2)cc1 | 
3060 nM |  | CC(C)(C)c1ccc(CCN2CCc3ccc(S(=O)(=O)Nc4ccc(F)cc4)cc3C2)cc1 | 
1520 nM | 641 µg/mL (≈ 1370 µM) | CC(C)(C)c1ccc(CCN2CCc3cc(S(=O)(=O)Nc4ccc(F)cc4)ccc3C2)cc1 | IC50 [2]: 1170 nM; solubility [6]: 385 µg/mL (≈ 825 µM); metabolised at 0.25 h [4]: 14.6%; metabolised at 0.25 h [5]: 47.8%; Cmax [7]: 1200 ng/mL; AUC(0-t) at 4 h [8]: 1810 ng·h/mL; inhibition in vivo at 100 mg/kg [9]: 57%
